According to US6906205B2, “Spiro and dispiro 1,2,4-trioxolane antimalarials” (Medicines for Malaria Venture MMV, priority 2002, dated 2005):

System: P. berghei ANKA strain
Assay: treatment: 3x3 mg/kg and 3x1 mg/kg po divided doses in infected mice
Format: in vivo, Plasmodium berghei
Conditions: for Activity (%) p.o. SSV: percent reduction of parasitemia day 4
Method: Moro NMRI male mice (Fü Albino specific pathogen free) weighing 18±2 g were infected intravenously (i.v.) with 2×10^7 P. berghei ANKA strain-infected erythrocytes from donor mice on day 0 of the experiment. From donor mice with circa 30% parasitemia, heparinized blood was taken and diluted in physiological saline to 10^8 parasitized erythrocytes per ml. An aliquot (0.2 ml) of this suspension was injected i.v. into experimental and control groups of mice. In untreated control mice, parasitemia rose regularly to 40 to 50% by day 3 post-infection and 70 to 80% by day 4 post-infection. The mice died between days 5 and 7 post-infection. Throughout the experiments, mice were kept in groups of three or five animals in Makrolon type II cages in an air-conditioned animal room at 22 to 23° C. A diet with p-aminobenzoic acid (PABA) of 45 mg (NAFAG FUTTER© food N^o 9009 PAB-45) per kg of body weight, and tap water is available ad libitum.
OZ compounds were prepared at an appropriate concentration, either as a solution or a suspension containing SSV (0.5% w/v CMC, 0.5% v/v benzyl alcohol, 0.4% v/v Tween 80, and 0.9% w/v sodium chloride in water). They were administered per os (p.o.) in a total volume of 0.01 ml per gram of mouse. The activity of the compound was determined by a variety of methods outlined in subsequent sections. Survival time was also recorded, and survival to day 30 post-infection was considered to be a cure.
The second experiment consists of administration of divided 3×3 mg/kg and 3×1 mg/kg po doses administered on days 1, 2, and 3 post-infection. On day 4 post-infection, blood smears of all animals were prepared and stained with Giemsa. Parasitemia was determined microscopically, and the difference between the mean value of the control group (taken as 100%) and those of the experimental groups was calculated and expressed as percent reduction. Compounds were administered orally in the SSV vehicle.

[1] = 3 × 1 mg/kg days 1, 2, 3 post-infection
[2] = 3 × 3 mg/kg days 1, 2, 3 post-infection

| Structure (SMILES) | Survival (days) p.o. SSV [1] [days] | Activity (%) p.o. SSV [1] [%] | Survival (days) p.o. SSV [2] [days] | Activity (%) p.o. SSV [2] [%] |
| --- | --- | --- | --- | --- |
| O=C1CN(C(=O)CC2CCC3(CC2)OOC2(O3)C3CC4CC(C3)CC2C4)CCN1 (stereo not shown) [compound 296] | 7.8 | 49 | 9.4 | 94 |
| O=C(CC1CCC2(CC1)OOC1(O2)C2CC3CC(C2)CC1C3)N1CCC(O)CC1 (stereo not shown) [compound 297] | 6.4 | 22 | 9.4 | 89 |
| NS(=O)(=O)c1ccc(NCC2CCC3(CC2)OOC2(O3)C3CC4CC(C3)CC2C4)cc1 (stereo not shown) [compound 298] | 11 | 93 | 16.4 | 99.99 |
| O=c1ccn(CC2CCC3(CC2)OOC2(O3)C3CC4CC(C3)CC2C4)cc1 (stereo not shown) [compound 302] | 13.4 | 87 | 13.4 | 99.51 |
| Cc1ccc(S(=O)(=O)O)cc1.NCCNC(=O)CC1CCC2(CC1)OOC1(O2)C2CC3CC(C2)CC1C3 (stereo not shown) [compound 305] | 9.6 | 87 | 12.2 | 99.91 |
| CS(=O)(=O)O.O=C(O)CNCC1CCC2(CC1)OOC1(O2)C2CC3CC(C2)CC1C3 (stereo not shown) [compound 309] | 9.4 | 66 | 9.2 | 99 |
| NC1(C(=O)NCC2CCC3(CC2)OOC2(O3)C3CC4CC(C3)CC2C4)CCCC1 (stereo not shown) [compound 317] | 11.4 | 73 | 16.8 | 100 |
| CS(=O)(=O)O.NC(=O)CCNCC1CCC2(CC1)OOC1(O2)C2CC3CC(C2)CC1C3 (stereo not shown) [compound 319] | 13 | 92 | 11.2 | 99.97 |
| NC(=O)c1cn(CC2CCC3(CC2)OOC2(O3)C3CC4CC(C3)CC2C4)cn1 (stereo not shown) [compound 320] | 8.6 | 50 | 9.6 | 96 |
| CS(=O)(=O)O.NCCOc1ccc(C2CCC3(CC2)OOC2(O3)C3CC4CC(C3)CC2C4)cc1 (stereo not shown) [compound 323] | 14.4 | 66 | 14.4 | 99.95 |
